# Results published in patent US8415359B2, “Phenylpyrrole derivative” (Daiichi Sankyo Company, Limited, priority 2008, dated 2013).
# Molecular target: T1, human pancreatic GK (human glucokinase variant 1, GST-fused protein) (Homo sapiens, UniProt P35557)
# T1 construct: made in house; host or cells: Escherichia coli (such as BL21 or JM109)
# T1 sequence (P35557 1-465): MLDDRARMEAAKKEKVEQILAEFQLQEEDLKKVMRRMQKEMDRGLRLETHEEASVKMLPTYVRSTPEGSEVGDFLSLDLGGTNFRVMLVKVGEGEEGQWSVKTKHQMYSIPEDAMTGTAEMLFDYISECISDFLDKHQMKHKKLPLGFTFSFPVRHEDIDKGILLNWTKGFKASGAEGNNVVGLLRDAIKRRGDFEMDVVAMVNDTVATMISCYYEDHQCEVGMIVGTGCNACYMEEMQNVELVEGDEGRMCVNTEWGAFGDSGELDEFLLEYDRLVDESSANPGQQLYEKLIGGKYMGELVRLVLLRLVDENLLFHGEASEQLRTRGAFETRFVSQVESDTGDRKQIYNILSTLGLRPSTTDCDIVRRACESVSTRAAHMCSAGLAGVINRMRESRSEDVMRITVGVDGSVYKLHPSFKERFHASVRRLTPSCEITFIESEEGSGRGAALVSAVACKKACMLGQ
# Test: GK activity test (GK activation rate)
# Type: biochemical
# Details: test compound 1 μM; glucose 5 mM; 30 min at room temperature; absorbance at 340 nm with test compound / without test compound
# Protocol: cDNA encoding human pancreatic GK polypeptide (GenBank Accession No. NM_000162, human glucokinase variant 1) was cloned from a human cDNA library by polymerase chain reaction (PCR), and introduced into a glutathione S-transferase (GST)-fused protein expression vector (GEX4T, GE Healthcare Bioscience). The vector was introduced into Escherichia coli (such as BL21 or JM109, Invitrogen), and the transformed E. coli was cultured overnight at 37° C. followed by recovery of the cells. After freezing and thawing the recovered cells, the cells were suspended in phosphate buffer containing Triton-X at a final concentration of 1% followed by disrupting the cells with an ultrasonic homogenizer. The supernatant obtained by low-speed centrifugation treatment of the homogenate (10,000×g, 30 minutes) was further subjected to high-speed centrifugation (100,000×g, 10 minutes) followed by recovering the supernatant and purifying the fused protein using a GST fused protein purification system (Bulk GST Purification Module, GE Healthcare Bioscience). The GK fused protein was divided into smaller aliquots and stored at −80° C.
# GK activity was measured using the GK purified in (1) above. More specifically, an enzyme solution was prepared by adding the purified GK of (1) above and glucose-6-phosphate dehydrogenase (Sigma) to solution 1 of a glucose assay kit (D-Glucose UV Method, Roche Diagnostics). The enzyme solution, a test compound diluent and glucose (final concentration: 5 mM) were mixed in a 96-well ELISA plate, and allowed to react for 30 minutes at room temperature. Following completion of the reaction, absorbance at a wavelength of 340 nm was measured using SpectraMax Plus (Molecular Probe). Furthermore, unreacted (when glucose was not added) absorbance was used for the background.
# GK activation rates were indicated with values represented by the following numerical formula: (absorbance after reacting for 30 minutes when test compound added)/(absorbance after reacting for 30 minutes when test compound not added).
row,GK Activation Rate,SMILES
1,2.5,"COC[C@H](C)Oc1cc(Oc2ccc(S(C)(=O)=O)nc2)cc(-c2ccc(C3=N[C@H](CO)CO3)[nH]2)c1 [Example 86, {(4R)-2-[5-(3-[(1S)-2-Methoxy-1-methylethoxy]-5-{[6-(methylsulfonyl)pyridin-3-yl]oxy}phenyl)-1H-pyrrol-2-yl]-4,5-dihydro-1,3-oxazol-4-yl}methanol]"
2,2.4,"CNS(=O)(=O)c1ccc(Oc2cc(O[C@@H](C)COC)cc(-c3ccc(C4=NC[C@H](CO)O4)[nH]3)c2)cn1 [Example 127, 5-(3-{5-[(5R)-5-(Hydroxymethyl)-4,5-dihydro-1,3-oxazol-2-yl]-1H-pyrrol-2-yl}-5-[(1S)-2-methoxy-1-methylethoxy]phenoxy)-N-methylpyridine-2-sulfonamide]"
3,2.0,"COC[C@H](C)Oc1cc(Oc2ncc(C(=O)N3CCC3)cc2Cl)cc(-c2ccc(-c3nccs3)[nH]2)c1 [Example 60, 5-(Azetidin-1-ylcarbonyl)-3-chloro-2-{3-[(1S)-2-methoxy-1-methylethoxy]-5-[5-(1,3-thiazol-2-yl)-1,1-pyrrol-2-yl]phenoxy}pyridine]"
4,1.8,"C[C@H]1CN=C(c2ccc(-c3cc(Oc4ncc(C(=O)N5CCC5)cc4Cl)cc(O[C@@H](C)CO)c3)[nH]2)O1 [Example 75, (2S)-2-(3-{[5-(Azetidin-1-ylcarbonyl)-3-chloropyridin-2-yl]oxy}-5-{5-[(5S)-5-methyl-4,5-dihydro-1,3-oxazol-2-yl]-1H-pyrrol-2-yl}phenoxy)propan-1-ol]"
5,2.9,"CC[C@@H]1COC(c2ccc(-c3cc(Oc4ccc(S(C)(=O)=O)nc4)cc(O[C@@H](C)CO)c3)[nH]2)=N1 [Example 85, (2S)-2-(3-{5-[(4R)-4-Ethyl-4,5-dihydro-1,3-oxazol-2-yl]-1H-pyrrol-2-yl}-5-{[6-(methylsulfonyl)pyridin-3-yl]oxy}phenoxy)propan-1-ol]"
6,2.0,"COC[C@H](C)Oc1cc(Oc2ccc(S(C)(=O)=O)cc2)cc(-c2ccc(C3=NCC(CO)O3)[nH]2)c1 (stereo partly drawn) [Example 29, [2-(5-{3-[(1S)-2-Methoxy-1-methylethoxy]-5-[4-(methylsulfonyl)phenoxy]phenyl}-1H-pyrrol-2-yl)-4,5-dihydro-1,3-oxazol-5-yl]methanol]"
7,2.0,"C[C@H]1CN=C(c2ccc(-c3cc(Oc4ccc(S(C)(=O)=O)cc4)cc(O[C@@H](C)CO)c3)[nH]2)O1 [Example 32, (2S)-2-(3-{5-[(5S)-5-Methyl-4,5-dihydro-1,3-oxazol-2-yl]-1H-pyrrol-2-yl}-5-[4-(methylsulfonyl)phenoxy]phenoxy)propan-1-ol]"
8,2.4,"C[C@@H]1OC(c2ccc(-c3cc(Oc4ccc(S(C)(=O)=O)nc4)cc(O[C@@H](C)CO)c3)[nH]2)=N[C@@H]1C [Example 88, (2S)-2-(3-{5-[(4R,5S)-4,5-Dimethyl-4,5-dihydro-1,3-oxazol-2-yl]-1H-pyrrol-2-yl}-5-{[6-(methylsulfonyl)pyridin-3-yl]oxy}phenoxy)propan-1-ol]"
9,2.3,"C[C@@H](CO)Oc1cc(Oc2ccc(S(C)(=O)=O)cc2)cc(-c2ccc(C3=NCCS3)[nH]2)c1 [Example 26, (2S)-2-{3-[5-(4,5-Dihydro-1,3-thiazol-2-yl)-1H-pyrrol-2-yl]-5-[4-(methylsulfonyl)phenoxy]phenoxy}propan-1-ol]"
10,2.4,"COC[C@H](C)Oc1cc(Oc2ccc(S(C)(=O)=O)nc2)cc(-c2ccc(-c3nccs3)[nH]2)c1 [Example 65, 5-{3-[(1S)-2-Methoxy-1-methylethoxy]-5-[5-(1,3-thiazol-2-yl)-1H-pyrrol-2-yl]phenoxy}-2-(methylsulfonyl)pyridine]"
11,1.9,"C[C@H]1CN=C(c2ccc(-c3cc(Oc4ccc(C(=O)N5CCC5)cc4F)cc(O[C@@H](C)CO)c3)[nH]2)O1 [Example 70, (2S)-2-(3-[4-(Azetidin-1-ylcarbonyl)-2-fluorophenoxy]-5-{5-[(5S)-5-methyl-4,5-dihydro-1,3-oxazol-2-yl}-1H-pyrrol-2-yl]phenoxy)propan-1-ol]"
12,1.9,"Cc1nnc(-c2ccc(-c3cc(Oc4cnc(S(C)(=O)=O)cn4)cc(O[C@@H](C)CO)c3)[nH]2)o1 [Example 98, (2S)-2-(3-[5-(5-Methyl-1,3,4-oxadiazol-2-yl)-1H-pyrrol-2-yl]-5-{[5-(methylsulfonyl)pyrazin-2-yl]oxy}phenoxy)propan-1-ol]"
13,2.5,"CNS(=O)(=O)c1ccc(Oc2cc(O[C@@H](C)CO)cc(-c3ccc(C4=NC[C@H](C)O4)[nH]3)c2)cn1 [Example 122, 5-(3-[(1S)-2-Hydroxy-1-methylethoxy]-5-{5-[(5S)-5-methyl-4,5-dihydro-1,3-oxazol-2-yl]-1H-pyrrol-2-yl}phenoxy)-N-methylpyridine-2-sulfonamide]"
14,2.0,"C[C@@H](CO)Oc1cc(Oc2ccc(S(C)(=O)=O)cc2)cc(-c2ccc(C3=NCCO3)[nH]2)c1 [Example 21, (2S)-2-{3-[5-(4,5-Dihydro-1,3-oxazol-2-yl)-1H-pyrrol-2-yl]-5-[4-(methylsulfonyl)phenoxy]phenoxy}propan-1-ol]"
15,2.4,"COC[C@H](C)Oc1cc(Oc2cnc(S(C)(=O)=O)cn2)cc(-c2ccc(C3=N[C@H]([C@H](C)O)CO3)[nH]2)c1 [Example 112, (1S)-1-{(4S)-2-[5-(3-{[(25)-1-Methoxypropan-2-yl]oxy}-5-{[5-(methylsulfonyl)pyrazin-2-yl]oxy}phenyl)-1H-pyrrol-2-yl]-4,5-dihydro-1,3-oxazol-4-yl}ethanol]"
16,2.6,"CNC(=O)c1ccc(Oc2cc(O[C@@H](C)CO)cc(-c3ccc(C4=NC[C@H](C)O4)[nH]3)c2)cn1 [Example 123, 5-(3-[(1S)-2-Hydroxy-1-methylethoxy]-5-{5-[(5S)-5-methyl-4,5-dihydro-1,3-oxazol-2-yl]-1H-pyrrol-2-yl}phenoxy)-N-methylpyridine-2-carboxamide]"
17,1.9,"COC[C@H](C)Oc1cc(Oc2cnc(C(=O)N3CCN(C)CC3)cn2)cc(-c2ccc(-c3nccs3)[nH]2)c1 [Example 64, 2-{3-[(1S)-2-Methoxy-1-methylethoxy]-5-[5-(1,3-thiazol-2-yl)-1H-pyrrol-2-yl]phenoxy}-5-[(4-methylpiperazin-1-yl)carbonyl]pyrazine]"
18,2.2,"C[C@@H]1OC(c2ccc(-c3cc(Oc4cnc(S(C)(=O)=O)cn4)cc(O[C@@H](C)CO)c3)[nH]2)=N[C@@H]1C [Example 109, (2S)-2-(3-{5-[(4R,5S)-4,5-Dimethyl-4,5-dihydro-1,3-oxazol-2-yl]-1H-pyrrol-2-yl}-5-{[5-(methylsulfonyl)pyrazin-2-yl]oxy}phenoxy)propan-1-ol]"
19,1.6,"COC[C@H](C)Oc1cc(Oc2ccc(S(C)(=O)=O)cc2)cc(-c2ccc(C(C)=O)[nH]2)c1 [Example 15, 1-(5-{3-[(1S)-2-Methoxy-1-methylethoxy]-5-[4-(methylsulfonyl)phenoxy]phenyl}-1H-pyrrol-2-yl)ethanone]"
20,2.6,"CNC(=O)c1ccc(Oc2cc(O[C@@H](C)COC)cc(-c3ccc(C4=NC[C@H](CO)O4)[nH]3)c2)cn1 [Example 126, 5-(3-{5-[(5R)-5-(Hydroxymethyl)-4,5-dihydro-1,3-oxazol-2-yl]-1H-pyrrol-2-yl}-5-[(1S)-2-methoxy-1-methylethoxy]phenoxy)-N-methylpyridine-2-carboxamide]"
21,2.1,"COC[C@H](C)Oc1cc(Oc2ccc(C(=O)N3CCC3)cc2F)cc(-c2ccc(-c3nccs3)[nH]2)c1 [Example 41, 2-(5-{3-[4-(Azetidin-1-ylcarbonyl)-2-fluorophenoxy]-5-[(1S)-2-methoxy-1-methylethoxy]phenyl}-1H-pyrrol-2-yl)-1,3-thiazole]"
22,2.0,"COC[C@H](C)Oc1cc(Oc2ccc(C(=O)N3CCC3)cc2F)cc(-c2ccc(C3=NCCO3)[nH]2)c1 [Example 68, 2-(5-{3-[4-(Azetidin-1-ylcarbonyl)-2-fluorophenoxy]-5-[(1S)-2-methoxy-1-methylethoxy]phenyl}-1H-pyrrol-2-yl)-4,5-dihydro-1,3-oxazole]"
